Data reported in paper PMC5075052, “Modulation of the Substitution Pattern of 5-Aryl-2-Aminoimidazoles Allows Fine-Tuning of Their Antibiofilm Activity Spectrum and Toxicity” (Antimicrobial Agents and Chemotherapy, 2016).

How the values were obtained:
[1] = test system: C. albicans SC5314 + E. coli MG1655; assay: Mixed C. albicans-E. coli biofilm, selective plating CFU; format: cell-based, Candida albicans + Escherichia coli; conditions: 37°C
Procedure: Overnight cultures of C. albicans SC5314 (YPD) and E. coli MG1655 (TSB) were washed three times with PBS, after which they were diluted in RPMI 1640 medium to OD600s of 1 and 0.01, respectively. Equal volumes of these cell suspensions were mixed, and 100 μl of this mixed cell suspension together with compound was added to the wells of a microtiter plate in triplicate. Concentrations of 25 μM (0.0625% DMSO or ethanol) and 100 μM (0.25% DMSO or ethanol) were tested. After 24 h of incubation at 37°C, the medium was removed and the biofilm was washed with PBS. Next, the cells were resuspended in 100 μl of PBS by scraping them off, sonicated (1 min, 45 kHz; USC300-T; VWR, Radnor, PA, USA), and vigorously pipetted up and down. Finally, dilution series were made, and quantification of the E. coli MG1655 and C. albicans SC5314 populations was performed using selective plating on tryptic soy agar (TSA) plates containing 25 mg/liter amphotericin B and YPD plates containing 100 μg/ml tetracycline, respectively. The percentage of C. albicans SC5314 and E. coli MG1655 cells relative to the number of cells after DMSO or ethanol control treatment was determined.

[2] = test system: C. albicans SC5314 + S. aureus SH1000; assay: Mixed C. albicans-S. aureus biofilm, selective plating CFU; format: cell-based, Candida albicans + Staphylococcus aureus; conditions: 37°C
Procedure: Overnight cultures of C. albicans SC5314 (YPD, 30°C) and S. aureus SH1000 (LB, 37°C) were washed with PBS, after which they were diluted in RPMI 1640 medium to obtain cell suspensions of 10^6 cells/ml for fungal cells and 10^8 cells/ml for bacteria. Equal volumes of these cell suspensions were mixed, and 100 μl of this mixed cell suspension together with compound was added to the wells of a microtiter plate in triplicate. Concentrations of 25 μM (0.0625% DMSO or ethanol) and 100 μM (0.25% DMSO or ethanol) were tested. The plates were incubated at 37°C for 90 min. After incubation, the wells were washed twice with PBS, and 200 μl of fresh RPMI 1640 medium with or without compounds was added in triplicate to the wells. After 24 h of incubation at 37°C, the medium was removed and the biofilm was washed with PBS. Next, the cells were resuspended in 100 μl of PBS by scraping them off, sonicated (1 min, 45 kHz; USC300-T; VWR, Radnor, PA, USA), and vigorously pipetted up and down. Finally, dilution series were made, and quantification of the S. aureus SH1000 and C. albicans SC5314 populations was performed using selective plating on TSA plates containing 25 mg/liter amphotericin B and YPD plates containing 100 μg/ml tetracycline, respectively. The percentage of C. albicans SC5314 and S. aureus SH1000 cells relative to the number of cells after DMSO or ethanol control treatment was determined.

[3] = test system: eukaryotic tumor cell lines, bone cells, and the nematode Caenorhabditis elegans; parameters: method as in PMID 25325155; conditions: C. elegans; cited from earlier work
[4] = test system: bone marrow-derived mesenchymal stem cells (MSC); assay: Mammalian cell viability assay, trypan blue staining; format: cell-based; conditions: 12.5 μM, 6 days of exposure
Procedure: (§1) The viability of two human primary cell types, namely, osteoblasts (OB) and bone marrow-derived mesenchymal stem cells (MSC), was tested according to the ISO 10993-5 standard, as previously described ([76]). Briefly, cells were seeded in 96-well tissue culture test plates (TPP; Trasadingen, Switzerland) at 5 × 10^3 cells/cm^2 in cell culture medium (advanced Dulbecco modified Eagle's medium [DMEM]) supplemented with 10% serum, 1× GlutaMAX, and 0.05 mg/ml gentamicin and were allowed to attach overnight. On the next day, the cells were exposed to (i) cell culture medium and medium with the corresponding control (0.5% ethanol or DMSO; negative controls), (ii) medium with 0.05% phenol (cytotoxic control), and (iii) medium with compounds (12.5 μM) and incubated for 2 h, 48 h, and 6 days (8 repeats for each condition). At each time point, the numbers of viable and dead cells were determined directly by trypan blue staining and indirectly by measuring metabolic activity with 3-(4,5-dimethylthiazol-2-yl)-2,5-diphenyltetrazolium bromide (MTT) staining.
The medium was removed from the wells, 1/3 trypan blue in DMEM was added to the cells, and the cells were incubated for 3 min, after which the trypan blue was removed and DMEM was added to the wells. In each of four wells, two microscopy fields were counted for viable (transparent) and dead (blue) cells.

[5] = test system: bone marrow-derived mesenchymal stem cells (MSC); assay: Osteogenic differentiation, calcium and DNA assay; format: cell-based, human; conditions: 12.5 μM; for calcium deposition of MSC (normalized by DNA): osteogenic medium, versus solvent control
Procedure: (§2) The effects of the substances on the osteogenic differentiation potential were assessed as previously described ([76]). Only the substances that allowed survival of the cells for more than 3 weeks, which is the time needed for mature osteogenic differentiation, were tested. Briefly, osteoblasts and bone marrow-derived mesenchymal stem cells were cultured in a positive solvent control (osteogenic medium with 0.5% DMSO or ethanol background), a negative control (medium without osteogenic supplements), and treated samples (osteogenic medium, 0.5% DMSO or ethanol background, and 12.5 μM test compound) with four repeats per condition. The cells in the mesenchymal stem cell and osteoblast cultures were harvested after 3 or 5 weeks, respectively, for the calcium and DNA assay.
(§3) The calcium deposition of osteoblasts and mesenchymal stem cells was measured with the calcium CPC LiquiColor test (Stanbio Laboratory, Boerne, TX) as previously described ([76]). Briefly, cell cultures were extracted with 5% trichloroacetic acid (500 μl per sample), o-cresolphthalein complex was added, and the calcium content was determined spectrophotometrically at 550 nm. The DNA content was determined as previously described ([76]). DNA values were used to normalize the calcium content. Four wells per condition were examined, and two samples from each well were taken for each assay.

osteoblasts (OB) [6] = assay: Osteogenic differentiation, calcium and DNA assay; format: cell-based, human; conditions: 12.5 μM; for calcium deposition of OB (normalized by DNA): osteogenic medium, versus solvent control
Procedure: as §2, §3

[7] = test system: bone marrow-derived mesenchymal stem cells (MSC); assay: Metabolic activity, MTT staining; format: cell-based; conditions: 12.5 μM, 6 days of treatment
Procedure: as §1
(§4) The medium was removed from the wells, and 100 μl of medium supplemented with 10% serum and 0.5 mg/ml MTT was added to the cells. The cells were incubated overnight at 37°C in 5% CO2. On the next day, the medium with MTT was removed and 100 μl acidic isopropanol was added. The cells were then centrifuged at 2,300 × g, and 50 μl of the supernatant was transferred to a new 96-well plate. The absorbance at 570 nm was measured, and the background at 660 nm was measured. Four wells per condition were examined.

osteoblasts (OB) [8] = assay: Metabolic activity, MTT staining; format: cell-based; conditions: 12.5 μM, 6 days of treatment
Procedure: as §1, §4

[9] = 25 μM compound, relative to solvent control

SMILES: CCCCCCCCn1c(-c2ccc(Cl)cc2)cnc1N [Compound 2]
- % CFU survival, E. coli ([1]; 25 μM compound): 158.6%
- % CFU survival, C. albicans [1, 9]: 104.9%
- % CFU survival, C. albicans ([1]; 100 μM compound): 0.0%
- % CFU survival, E. coli ([1]; 100 μM compound): 0.1%
- % CFU survival, C. albicans ([2]; 25 μM compound): 183.8%
- % CFU survival, S. aureus ([2]; 25 μM compound): 87.7%
- % CFU survival, C. albicans ([2]; 100 μM compound): 0.9%
- % CFU survival, S. aureus ([2]; 100 μM compound): 0.2%
- toxicity (previously reported) [3]: strong toxicity

SMILES: CC(C)CNc1ncc(-c2ccc(Cl)cc2)[nH]1 [Compound 3]
- % CFU survival, E. coli ([1]; 25 μM compound): 138.5%
- % CFU survival, C. albicans [1, 9]: 143.4%
- % CFU survival, C. albicans ([1]; 100 μM compound): 59.6%
- % CFU survival, E. coli ([1]; 100 μM compound): 63.0%
- % CFU survival, C. albicans ([2]; 25 μM compound): 165.7%
- % CFU survival, S. aureus ([2]; 25 μM compound): 124.6%
- % CFU survival, C. albicans ([2]; 100 μM compound): 141.3%
- % CFU survival, S. aureus ([2]; 100 μM compound): 51.8%

SMILES: Clc1ccc(-c2cnc(NC3CCCC3)[nH]2)cc1 [Compound 5]
- % CFU survival, E. coli ([1]; 25 μM compound): 100.6%
- % CFU survival, C. albicans [1, 9]: 100.8%
- % CFU survival, C. albicans ([1]; 100 μM compound): 38.3%
- % CFU survival, E. coli ([1]; 100 μM compound): 105.6%
- % CFU survival, C. albicans ([2]; 25 μM compound): 232.4%
- % CFU survival, S. aureus ([2]; 25 μM compound): 75.4%
- % CFU survival, C. albicans ([2]; 100 μM compound): 120.6%
- % CFU survival, S. aureus ([2]; 100 μM compound): 74.5%

SMILES: Brc1ccc(-c2cnc(NCCn3cc(C4CC4)nn3)[nH]2)cc1 [Compound 6]
- toxicity (previously reported) [3]: higher level of toxicity

SMILES: CCCCCCCCn1c(-c2ccccc2)cnc1NCC(C)C [Compound 8a]
- proliferation of MSC (trypan blue) [4]: slightly reduced

SMILES: CCCCCCCCn1c(-c2ccc(Cl)cc2)cnc1NCC(C)C [Compound 8b]
- survival of MSC allowed [5]: more than 3 weeks
- calcium deposition of MSC (normalized by DNA) [5]: induced
- survival of OB allowed (osteoblasts (OB) [6]): more than 3 weeks
- calcium deposition of OB (normalized by DNA) (osteoblasts (OB) [6]): induced

SMILES: CCCCCCCCn1c(-c2ccc(Br)cc2)cnc1NCC(C)C [Compound 8c]
- metabolic activity of MSC (MTT) compared to solvent control [7]: increased
- metabolic activity of OB (MTT) compared to solvent control (osteoblasts (OB) [8]): increased
- survival of MSC allowed [5]: more than 3 weeks
- calcium deposition of MSC (normalized by DNA) [5]: induced
- survival of OB allowed (osteoblasts (OB) [6]): more than 3 weeks
- calcium deposition of OB (normalized by DNA) (osteoblasts (OB) [6]): induced

SMILES: CCCCCCCCn1c(-c2ccc(Cl)c(Cl)c2)cnc1NCC(C)C [Compound 8d]
- proliferation of MSC (trypan blue) [4]: increase in proliferation
- metabolic activity of MSC (MTT) compared to solvent control [7]: increased
- metabolic activity of OB (MTT) compared to solvent control (osteoblasts (OB) [8]): increased
- survival of MSC allowed [5]: more than 3 weeks
- calcium deposition of MSC (normalized by DNA) [5]: none of the compounds at 12.5 μM negatively affected the calcium deposition
- survival of OB allowed (osteoblasts (OB) [6]): more than 3 weeks
- calcium deposition of OB (normalized by DNA) (osteoblasts (OB) [6]): none of the compounds at 12.5 μM negatively affected the calcium deposition

SMILES: CCCCCCCCn1c(-c2ccccc2)cnc1NC1CCCC1 [Compound 8e]
- proliferation of MSC (trypan blue) [4]: slightly reduced

SMILES: CCCCCCCCn1c(-c2ccc(Cl)cc2)cnc1NC1CCCC1 [Compound 8f]
- proliferation of MSC (trypan blue) [4]: slightly reduced

SMILES: CCCCCCCCn1c(-c2ccc(Br)cc2)cnc1NC1CCCC1 [Compound 8g]
- proliferation of MSC (trypan blue) [4]: slightly reduced
- metabolic activity of MSC (MTT) compared to solvent control [7]: increased
- metabolic activity of OB (MTT) compared to solvent control (osteoblasts (OB) [8]): increased
- survival of MSC allowed [5]: more than 3 weeks
- calcium deposition of MSC (normalized by DNA) [5]: induced
- survival of OB allowed (osteoblasts (OB) [6]): more than 3 weeks
- calcium deposition of OB (normalized by DNA) (osteoblasts (OB) [6]): induced

SMILES: CCCCCCCCn1c(-c2ccc(Cl)c(Cl)c2)cnc1NC1CCCC1 [Compound 8h]
- metabolic activity of MSC (MTT) compared to solvent control [7]: increased
- metabolic activity of OB (MTT) compared to solvent control (osteoblasts (OB) [8]): increased
- survival of MSC allowed [5]: more than 3 weeks
- calcium deposition of MSC (normalized by DNA) [5]: induced
- survival of OB allowed (osteoblasts (OB) [6]): more than 3 weeks
- calcium deposition of OB (normalized by DNA) (osteoblasts (OB) [6]): induced
